# Reference: paper PMC4855506 (Journal of molecular and cellular cardiology, 2011)
# Assay: coupled proteolysis-cGMP elevation bioassay with protease inhibitors
# Type: in vitro ADME, human
# [1] = Fig. 2B, 30 min, 37 °C, human kidney membranes, 293-GC-A cells, n=4
substance,measurement,setting,value
B-type natriuretic peptide [BNP],effect of leupeptin on degradation,[1],completely blocked the degradation
same,effect of phosphoramidon on degradation,[1],failed to preserve the activity
same,effect of boiling the membranes before peptide exposure,"Fig. 2B, 30 min, 37 °C, 293-GC-A cells, n=4",blocked inactivation
C-type natriuretic peptide [CNP],effect of boiling the membranes prior to peptide exposure,"Fig. 2A, 30 min, 37 °C, boiled human kidney membranes, n=8",abolished membrane-dependent inactivation
same,effect of actinonin together with phosphoramidon,"Fig. 2A, 30 min, 37 °C, human kidney membranes, n=8",did not further increase activity above that seen with phosphoramidon alone
same,activity loss blocked by phosphoramidon,"Fig. 2A, NEP inhibitor phosphoramidon, 30 min, 37 °C, human kidney membranes, n=8",about 40%
same,effect of actinonin alone on inactivation,"Fig. 2A, meprin inhibitor actinonin, 30 min, 37 °C, human kidney membranes, n=8",did not block inactivation
same,effect of leupeptin on inactivation,"Fig. 2A, serine-threonine-cysteine protease inhibitor leupeptin, 30 min, 37 °C, human kidney membranes, n=8",did not statistically increase the bioactivity
same,increase of bioactivity on inhibition of NEP in kidney membranes,"phosphoramidon, human kidney membranes, 30 min, 37 °C (Fig. 2A)",8 fold
Dendroaspis natriuretic peptide [DNP],activity in the presence of phosphoramidon,"Fig. 2C, 120 min, 37 °C, human kidney membranes, human GC-A read-out, n=4",significantly less than control values
